According to article PMC11317875 (Chemical Science, 2024):
Like-named read-outs stand apart in the source and are kept apart here.

Experiments:
LpqY [1] = target: T1, LpqY (Mycolicibacterium thermoresistibile, UniProt G7CES0); design: His-SUMO (N, cleaved yes); made in house; host or cells: E. coli BL21 (DE3); conditions: LpqY-azide-trehalose binding; cited from earlier work
[2] = system: Wild-type Mycobacterium bovis BCG; type: cell-based; conditions: 100 μM probe
[3] = system: Mycobacterium tuberculosis; assay: Time dependent F-Tre uptake, HPAEC-PAD of cytosolic extracts; type: cell-based; conditions: for accumulation rate: 100 μM probe, cytosolic extracts; for Mtb cytosolic concentration: 100 µM probe; for saturation of uptake: up to the 8 hour timepoint
Procedure: lyophilised, resuspended in 1 mL 18 MΩ H2O and filtered through a 10-kDa molecular weight cut-off centrifuge filter (Amicon) and the filtrate analysed. HPAEC-PAD was performed on a Dionex ICS5000+ system with a CarboPac PA-20 analytical column (3 mm x 150 mm) and PA-20 guard column (3 mm x 30 mm) kept at 20 °C. Pulsed amperometry with standard quadrupole waveform was used for detection. The system was equipped with an autosampler that was set up to inject 10 μL sample volumes. Multistep gradient […]
Chromeleon 7 software (Dionex) was used for data processing.
Table S11: High performance anion exchange chromatography KOH elution gradient for F-Tre analysis Time (min) KOH conc. (mM) Flow rate (mL/min)
To quantify uptake, the peak area of 2F-Tre, 3F-Tre and 6F-Tre standards at varying concentrations were measured (Chromeleon 7 software). The peak area was plotted against concentration and simple linear regression was plotted. To determine the concentration of F-Tre analogues in cytosolic samples the area of the peaks of interest was measured (Chromeleon 7 software) and the concentration determined from the calibration […]
Time dependent F-Tre uptake
M. tuberculosis was grown to an OD600 of 0.8, then 2F-Tre, 3F-Tre, 4F-Tre or 6F-Tre were added to a final concentration of 100 µM. Controls with the equivalent volume of water or equivalent concentration of trehalose were also prepared. 5 mL aliquots were taken at T=0, 0.5, 1, 1.5, 2, 3, 4, 6, 8 h and the cells were harvested by centrifugation (2,916 x g, 5 min, 22 ° C) and washed (5 mL PBST) three times. The pellets were then resuspended in 1 mL H2O and lysed by mechanical disruption using 0.1 mm zirconia/silica beads (BioSpec Products) on a FastPrep (MP Biomedicals) ribolyser (4 x 45 s cycles with 90 s on ice in between).
Samples were then centrifuged (16,200 x g, 10 min, 22 °C) and the supernatant collected, lyophilised, resuspended in 1 mL 18 MΩ H2O and filtered through a 10-kDa molecular weight cut-off centrifuge filter (Amicon). The filtrate was analysed by HPAEC-PAD and quantified as described above.

LpqY [4] = target: T1, LpqY; assay: Microscale thermophoresis (MST) binding to LpqY; conditions: for fold weaker binding to LpqY: compared with 3F-Tre, 6F-Tre and unmodified trehalose
Procedure: Microscale Thermophoresis
Mtr LpqY (2.6 μM) was labelled with the amine reactive RED-NHS dye (3 μM) (second generation,
NanoTemper Technologies). Following incubation in the dark for 30 min with shaking (300 rpm, room
temperature), excess dye was removed using a Zeba desalting spin column (7KMWCO).
analogues were prepared in PBS containing 0.05% Tween 20, and the final concentration of the protein in the
assay was 500 nM. The samples were loaded into the MonoLith NT.115 standard treated capillaries and
incubated for 10 min before analysis using the Monolith NT.115 instrument (NanoTemper Technologies) at

[5] = system: Mycobacterium tuberculosis; assay: F-Tre uptake at a single time point, HPAEC-PAD of cytosolic extracts; type: cell-based; conditions: for uptake / accumulation in Mtb cells: 0-200 μM probe, ion chromatography of cytosolic extracts; for Peak area of F-Tre peak: HPAEC trace
[6] = system: Mycobacterium tuberculosis; assay: Ion chromatography of hydrolysed lipid extracts of F-Tre labelled Mtb; type: cell-based
M. bovis BCG = type: cell-based, Mycobacterium bovis BCG; conditions: for new spots in the lipid extracts (TLC): 100 μM probe
Mtb = type: cell-based, Mycobacterium tuberculosis; conditions: for new spots in the lipid extracts (TLC) / additional band in the TDM region (TLC) / additional lower polarity bands than TMM (TLC): 100 μM probe; for additional band in the TDM region (TLC) / additional lower polarity bands than TMM (TLC): Fig. 8 shows Mtb and M. bovis BCG

T1 sequence (G7CES0 29-471): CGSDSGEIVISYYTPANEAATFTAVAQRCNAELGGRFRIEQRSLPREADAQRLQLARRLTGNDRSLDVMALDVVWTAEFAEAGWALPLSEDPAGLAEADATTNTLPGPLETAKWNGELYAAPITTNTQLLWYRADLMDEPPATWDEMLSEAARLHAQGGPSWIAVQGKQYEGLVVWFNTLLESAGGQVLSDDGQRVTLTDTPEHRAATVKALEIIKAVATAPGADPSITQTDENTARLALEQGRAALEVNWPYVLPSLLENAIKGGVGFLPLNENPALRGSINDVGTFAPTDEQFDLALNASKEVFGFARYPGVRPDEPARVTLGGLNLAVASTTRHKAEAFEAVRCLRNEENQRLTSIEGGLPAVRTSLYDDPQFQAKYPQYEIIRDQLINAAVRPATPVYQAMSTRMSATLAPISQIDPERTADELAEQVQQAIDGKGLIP

[N-]=[N+]=N[C@H]1[C@@H](O[C@H]2O[C@H](CO)[C@@H](O)[C@H](O)[C@H]2O)O[C@H](CO)[C@@H](O)[C@@H]1O [2Az-Tre, 2-Deoxy-2-azido-trehalose]
Kd (LpqY [1]): 1916 ± 7.7 µM

OC[C@H]1O[C@H](O[C@H]2O[C@H](CO)[C@@H](O)[C@H](O)[C@H]2F)[C@H](O)[C@@H](O)[C@@H]1O [2F-Tre, 2-deoxy-2-fluoro-trehalose]
accumulation in cytosolic extracts [2]: accumulate
accumulation rate [3]: 0.80 µM/h
Mtb cytosolic concentration ([3]; Time 0 h): 0 ± 0 µM
Mtb cytosolic concentration ([3]; Time 0.5 h): 636 ± 33 µM
Mtb cytosolic concentration ([3]; Time 1 h): 838 ± 52 µM
Mtb cytosolic concentration ([3]; Time 1.5 h): 1144 ± 250 µM
Mtb cytosolic concentration ([3]; Time 2 h): 1717 ± 151 µM
Mtb cytosolic concentration ([3]; Time 4 h): 2917 ± 105 µM
Mtb cytosolic concentration ([3]; Time 6 h): 4597 ± 236 µM
Mtb cytosolic concentration ([3]; Time 8 h): 6639 ± 337 µM
saturation of uptake [3]: no saturation of uptake
Kd (LpqY [4]): 770 ± 23.2 µM
fold weaker binding to LpqY (LpqY [4]): ~8 fold
uptake / accumulation in Mtb cells [5]: significant dose-dependent increase in the accumulation
Peak area of F-Tre peak ([5]; Mtb + 25 µM F-Tre): 0.096 nC*min
Peak area of F-Tre peak ([5]; Mtb + 50 µM F-Tre): 0.206 nC*min
Peak area of F-Tre peak ([5]; Mtb + 100 µM F-Tre): 0.362 nC*min
Peak area of F-Tre peak ([5]; Mtb + 200 µM F-Tre): 1.328 nC*min
detection in hydrolysed lipid extracts ([6]; 100 µM probe, HPAEC-PAD): detected
Peak area of F-Tre peak in hydrolysed lipid extracts ([6]; Mtb + F-Tre (100 µM)): 0.662 nC*min
new spots in the lipid extracts (TLC) (M. bovis BCG): new spots
new spots in the lipid extracts (TLC) (Mtb): new spots
additional band in the TDM region (TLC) (Mtb): one additional lower polarity TDM band
additional lower polarity bands than TMM (TLC) (Mtb): Two additional lower polarity bands than TMM

[N-]=[N+]=N[C@@H]1[C@@H](O)[C@@H](O[C@H]2O[C@H](CO)[C@@H](O)[C@H](O)[C@H]2O)O[C@H](CO)[C@H]1O [3Az-Tre, 3-Deoxy-3-azido-trehalose]
Kd (LpqY [1]): 475 ± 17.2 µM

OC[C@H]1O[C@H](O[C@H]2O[C@H](CO)[C@@H](O)[C@H](F)[C@H]2O)[C@H](O)[C@@H](O)[C@@H]1O [3F-Tre, 3-deoxy-3-fluoro-trehalose]
accumulation in cytosolic extracts [2]: accumulate
accumulation rate [3]: 0.94 µM/h
Mtb cytosolic concentration ([3]; Time 0 h): 0 ± 0 µM
Mtb cytosolic concentration ([3]; Time 0.5 h): 250 ± 102 µM
Mtb cytosolic concentration ([3]; Time 1 h): 423 ± 256 µM
Mtb cytosolic concentration ([3]; Time 1.5 h): 1030 ± 335 µM
Mtb cytosolic concentration ([3]; Time 2 h): 1628 ± 25 µM
Mtb cytosolic concentration ([3]; Time 4 h): 3016 ± 102 µM
Mtb cytosolic concentration ([3]; Time 6 h): 5872 ± 297 µM
Mtb cytosolic concentration ([3]; Time 8 h): 7892 ± 72 µM
increased accumulation compared to 2F- and 6F-Tre ([3]; at 8 hours): ~20%
saturation of uptake [3]: no saturation of uptake
Kd (LpqY [4]): 111 ± 7.1 µM
uptake / accumulation in Mtb cells [5]: significant dose-dependent increase in the accumulation
Peak area of F-Tre peak ([5]; Mtb + 25 µM F-Tre): 1.869 nC*min
Peak area of F-Tre peak ([5]; Mtb + 50 µM F-Tre): 3.093 nC*min
Peak area of F-Tre peak ([5]; Mtb + 100 µM F-Tre): 6.779 nC*min
Peak area of F-Tre peak ([5]; Mtb + 200 µM F-Tre): 12.530 nC*min
new spots in the lipid extracts (TLC) (M. bovis BCG): new spots
new spots in the lipid extracts (TLC) (Mtb): new spots
additional band in the TDM region (TLC) (Mtb): one additional lower polarity TDM band
additional lower polarity bands than TMM (TLC) (Mtb): Two additional lower polarity bands than TMM

[N-]=[N+]=N[C@H]1[C@H](O)[C@@H](O)[C@@H](O[C@H]2O[C@H](CO)[C@@H](O)[C@H](O)[C@H]2O)O[C@@H]1CO [4Az-Tre, 4-Deoxy-4-azido-trehalose]
Kd (LpqY [1]): 247 ± 7.1 µM

OC[C@H]1O[C@H](O[C@H]2O[C@H](CO)[C@@H](F)[C@H](O)[C@H]2O)[C@H](O)[C@@H](O)[C@@H]1O [4F-Tre]
accumulation in cytosolic extracts [2]: not
Mtb cytosolic concentration ([3]; Time 0 h): 0 µM
Mtb cytosolic concentration ([3]; Time 0.5 h): 0 µM
Mtb cytosolic concentration ([3]; Time 1 h): 0 µM
Mtb cytosolic concentration ([3]; Time 1.5 h): 0 µM
Mtb cytosolic concentration ([3]; Time 2 h): 0 µM
Mtb cytosolic concentration ([3]; Time 4 h): 0 µM
Mtb cytosolic concentration ([3]; Time 6 h): 0 µM
Mtb cytosolic concentration ([3]; Time 8 h): 0 µM
Kd (LpqY [4]): 1480 ± 75.6 µM
affinity range (LpqY [4]; MST): millimolar range
fold weaker binding to LpqY (LpqY [4]): ~16 fold
uptake / accumulation in Mtb cells [5]: No uptake
presence in trehalose glycolipids (M. bovis BCG): not found in any trehalose glycolipid
new spots in the lipid extracts (TLC) (M. bovis BCG): No new spots
presence in trehalose glycolipids (Mtb): not found in any trehalose glycolipid
new spots in the lipid extracts (TLC) (Mtb): No new spots

[N-]=[N+]=NC[C@H]1O[C@H](O[C@H]2O[C@H](CO)[C@@H](O)[C@H](O)[C@H]2O)[C@H](O)[C@@H](O)[C@@H]1O [6Az-Tre, 6-Deoxy-6-azido-trehalose]
Kd (LpqY [1]): 443 ± 5.3 µM

OC[C@H]1O[C@H](O[C@H]2O[C@H](CF)[C@@H](O)[C@H](O)[C@H]2O)[C@H](O)[C@@H](O)[C@@H]1O [6F-Tre, 6-deoxy-6-fluoro-trehalose]
accumulation in cytosolic extracts [2]: accumulate
accumulation rate [3]: 0.82 µM/h
Mtb cytosolic concentration ([3]; Time 0 h): 0 ± 0 µM
Mtb cytosolic concentration ([3]; Time 0.5 h): 342 ± 16 µM
Mtb cytosolic concentration ([3]; Time 1 h): 797 ± 224 µM
Mtb cytosolic concentration ([3]; Time 1.5 h): 1392 ± 83 µM
Mtb cytosolic concentration ([3]; Time 2 h): 1804 ± 111 µM
Mtb cytosolic concentration ([3]; Time 4 h): 2945 ± 234 µM
Mtb cytosolic concentration ([3]; Time 6 h): 4694 ± 237 µM
Mtb cytosolic concentration ([3]; Time 8 h): 6843 ± 43 µM
saturation of uptake [3]: no saturation of uptake
Kd (LpqY [4]): 90.3 ± 0.9 µM
uptake / accumulation in Mtb cells [5]: significant dose-dependent increase in the accumulation
Peak area of F-Tre peak ([5]; Mtb + 25 µM F-Tre): 0.144 nC*min
Peak area of F-Tre peak ([5]; Mtb + 50 µM F-Tre): 0.506 nC*min
Peak area of F-Tre peak ([5]; Mtb + 100 µM F-Tre): 0.866 nC*min
Peak area of F-Tre peak ([5]; Mtb + 200 µM F-Tre): 1.604 nC*min
new spots in the lipid extracts (TLC) (M. bovis BCG): new spots
new spots in the lipid extracts (TLC) (Mtb): new spots
additional band in the TDM region (TLC) (Mtb): no additional band in the TDM region
additional lower polarity bands than TMM (TLC) (Mtb): one
